Experimental data taken from BigSolDB 2.1.

O=[N+]([O-])c1cccc(Cl)c1Cl
solubility (mole fraction)
Conditions	in ethanol	in methanol	in water
278.15 K	0.013	0.0122	1.6e-06
280.65 K	0.0149	0.0137	2.03e-06
283.15 K	0.0172	0.0157	2.45e-06
285.65 K	0.0203	0.0182	2.88e-06
288.15 K	0.0231	0.0206	3.91e-06
290.65 K	0.0257	0.0232	4.85e-06
293.15 K	0.0286	0.0258	5.85e-06
295.65 K	0.0322	0.0288	6.98e-06
298.15 K	0.0366	0.0315	8.68e-06
300.65 K	0.0418	0.0343	1.07e-05
303.15 K	0.0465	0.0376	1.29e-05
